Test results from publication PMC8694192, “Synthesis and biological evaluation of new derivatives of thieno-thiazole and dihydrothiazolo-thiazole scaffolds integrated with a pyrazoline nucleus as anticancer and multi-targeting kinase inhibitors” (RSC Advances, 2021).
In brackets after ≈: the same amount, converted by molar mass. Read-outs that look alike come from different tables or passages of the source.

Assays:
S. aureus 25923 [1] = experiment: Agar well diffusion, inhibition zone; assay type: cell-based
E. faecalis [2] = experiment: Agar well diffusion, inhibition zone; assay type: cell-based; details: Enterococcus faecalis, read-out: Mean diameter of inhibition zone (mean ± SEM) E. faecalis
S. pneumoniae 010010 [3] = experiment: Agar well diffusion, inhibition zone; assay type: cell-based
E. coli RCMB 010052 [4] = experiment: Agar well diffusion, inhibition zone; assay type: cell-based; details: Escherichia coli
S. typhi ATCC 14028 [5] = experiment: Agar well diffusion, inhibition zone; assay type: cell-based; details: Salmonella enterica, read-out: Mean diameter of inhibition zone (mean ± SEM) S. typhi ATCC 14028
P. aeruginosa [6] = experiment: Agar well diffusion, inhibition zone; assay type: cell-based; details: Pseudomonas aeruginosa, read-out: Mean diameter of inhibition zone (mean ± SEM) P. aeruginosa
S. typhi ATCC 14028 [7] = experiment: MIC, two-fold serial dilution; assay type: cell-based; details: Salmonella enterica, read-out: MIC S. typhi ATCC 14028
S. aureus 25923 [8] = experiment: MIC, two-fold serial dilution; details: Staphylococcus aureus, 25923, read-out: MIC S. aureus 25923
E. faecalis [9] = experiment: MIC, two-fold serial dilution; details: Enterococcus faecalis, read-out: MIC E. faecalis
S. pneumoniae 010010 [10] = experiment: MIC, two-fold serial dilution; details: for MIC: Streptococcus pneumoniae, 010010, read-out: MIC S. pneumoniae 010010
E. coli RCMB 010052 [11] = experiment: MIC, two-fold serial dilution; details: Escherichia coli, RCMB010052, read-out: MIC E. coli RCMB 010052
P. aeruginosa [12] = experiment: MIC, two-fold serial dilution; details: for MIC: Pseudomonas aeruginosa, read-out: MIC P. aeruginosa
MCF-7 cells = experiment: In vitro cytotoxicity, MTT assay, MCF-7; details: Homo sapiens, MCF7, read-out: IC50 MCF-7
HepG-2 cells = experiment: In vitro cytotoxicity, MTT assay, HepG-2; details: Homo sapiens, HepG2, read-out: IC50 HepG-2
A. fumigatus RCMB 02568 [13] = experiment: Agar well diffusion, inhibition zone; assay type: cell-based; details: Aspergillus fumigatus
C. albicans ATCC 10231 [14] = experiment: Agar well diffusion, inhibition zone; assay type: cell-based; details: Candida albicans
A. fumigatus RCMB 02568 [15] = experiment: MIC, two-fold serial dilution; details: for MIC: Aspergillus fumigatus, RCMB02568, read-out: MIC A. fumigatus RCMB 02568
C. albicans ATCC 10231 [16] = experiment: MIC, two-fold serial dilution; details: for MIC: Candida albicans, ATCC10231, read-out: MIC C. albicans ATCC 10231
[17] = Staphylococcus aureus, 25923, read-out: Mean diameter of inhibition zone (mean ± SEM) S. aureus 25923
[18] = RCMB010052, read-out: Mean diameter of inhibition zone (mean ± SEM) E. coli RCMB 010052
[19] = Streptococcus pneumoniae, 010010, read-out: Mean diameter of inhibition zone (mean ± SEM) S. pneumoniae 010010
[20] = RCMB02568, read-out: Mean diameter of inhibition zone (mean ± SEM) A. fumigatus RCMB 02568
[21] = ATCC10231, read-out: Mean diameter of inhibition zone (mean ± SEM) C. albicans ATCC 10231

SMILES	zone of inhibition at 500 µg/mL (S. typhi ATCC 14028 [5]) [mm]	MIC (S. typhi ATCC 14028 [7]) [µM]	MIC (S. aureus 25923 [8]) [µM]	MIC (E. faecalis [9]) [µM]	MIC (S. pneumoniae 010010 [10]) [µM]	MIC (E. coli RCMB 010052 [11]) [µM]	MIC (P. aeruginosa [12]) [µM]	zone of inhibition at 500 µg/mL (S. aureus 25923 [1]; [17]) [mm]	zone of inhibition at 500 µg/mL (E. coli RCMB 010052 [4]; [18]) [mm]	zone of inhibition at 500 µg/mL (P. aeruginosa [6]) [mm]	melting point [°C]	IC50 (MCF-7 cells) [µM]	IC50 (HepG-2 cells) [µM]	zone of inhibition at 500 µg/mL (E. faecalis [2]) [mm]	zone of inhibition at 500 µg/mL (S. pneumoniae 010010 [3]; [19]) [mm]	zone of inhibition at 500 µg/mL (A. fumigatus RCMB 02568 [13]; [20]) [mm]	zone of inhibition at 500 µg/mL (C. albicans ATCC 10231 [14]; [21]) [mm]	MIC (A. fumigatus RCMB 02568 [15]) [µM]	MIC (C. albicans ATCC 10231 [16]) [µM]	other results
[H]/N=C(/N)N[C@H]1[C@H](O)[C@@H](O)[C@H](O[C@@H]2O[C@@H](C)[C@](O)(C=O)[C@H]2O[C@@H]2O[C@@H](CO)[C@H](O)[C@@H](O)[C@@H]2NC)[C@@H](N/C(N)=N\[H])[C@@H]1O [Streptomycin, reference compound]	23 ± 0.92	47.1 (≈ 27.4 µg/mL)	16.8 (≈ 9.74 µg/mL)	19.5 (≈ 11.3 µg/mL)	65.3 (≈ 38 µg/mL)	9.18 (≈ 5.34 µg/mL)	68.2 (≈ 39.7 µg/mL)	–	–	–	–	–	–	–	–	–	–	–	–	zone of inhibition at 500 µg/mL (S. aureus 25923 [1]; Staphylococcus aureus, 25923, well diffusion agar, 0.5 mg/mL, read-out: Mean diameter of inhibition zone (mean ± SEM) S. aureus 25923): 26 ± 0.45 mm; zone of inhibition at 500 µg/mL (E. faecalis [2]; well diffusion agar, 0.5 mg/mL): 25 ± 0.38 mm; zone of inhibition at 500 µg/mL (S. pneumoniae 010010 [3]; Streptococcus pneumoniae, 010010, well diffusion agar, 0.5 mg/mL, read-out: Mean diameter of inhibition zone (mean ± SEM) S. pneumoniae 010010): 22 ± 0.81 mm; zone of inhibition at 500 µg/mL (E. coli RCMB 010052 [4]; RCMB010052, well diffusion agar, 0.5 mg/mL, read-out: Mean diameter of inhibition zone (mean ± SEM) E. coli RCMB 010052): 27 ± 0.56 mm; zone of inhibition at 500 µg/mL (P. aeruginosa [6]; well diffusion agar, 0.5 mg/mL): 20 ± 0.53 mm
Cc1c(Nc2nc3c(s2)sc(=S)n3-c2ccc(Cl)cc2)c(=O)n(-c2ccccc2)n1C [Compound 5d, 4-((4-(4-Chlorophenyl)-5-thioxo-4,5-dihydrothiazolo[4,5-d]thiazol-2-yl)amino)-1,5-dimethyl-2-phenyl-1H-pyrazol-3(2H)-one]	–	–	18.9 (≈ 9.17 µg/mL)	–	–	118 (≈ 57.4 µg/mL)	180 (≈ 87.6 µg/mL)	25 ± 0.13	15 ± 0.04	13 ± 0.11	211 to 213	88.56 ± 0.01	81.5 ± 0.03	–	–	–	–	–	–	–
CCOC(=O)c1c(N)sc2sc(Nc3c(C)n(C)n(-c4ccccc4)c3=O)nc12 [Compound 3b, Ethyl 5-amino-2-((1,5-dimethyl-3-oxo-2-phenyl-2,3-dihydro-1H-pyrazol-4-yl)amino) thieno[3,2-d]thiazole-6-carboxylate]	23 ± 0.79	45.6 (≈ 19.6 µg/mL)	79 (≈ 33.9 µg/mL)	67.4 (≈ 29 µg/mL)	179 (≈ 76.7 µg/mL)	119 (≈ 51.1 µg/mL)	125 (≈ 53.6 µg/mL)	19 ± 0.68	15 ± 0.71	17 ± 0.41	285 to 287	36.77 ± 0.02	39.02 ± 0.02	20 ± 0.24	14 ± 0.84	21 ± 0.22	11 ± 0.7	62.1 (≈ 26.7 µg/mL)	189 (≈ 81.2 µg/mL)	–
Cc1c(Nc2nc3c(C(N)=S)c(N)sc3s2)c(=O)n(-c2ccccc2)n1C [Compound 3d, 5-Amino-2-((1,5-dimethyl-3-oxo-2-phenyl-2,3-dihydro-1H-pyrazol-4-yl)amino) thieno[3,2-d]thiazole-6-carbothioamide]	18 ± 0.13	121 (≈ 50.6 µg/mL)	181 (≈ 75.4 µg/mL)	75.5 (≈ 31.4 µg/mL)	16.2 (≈ 6.74 µg/mL)	71.8 (≈ 29.9 µg/mL)	67 (≈ 27.9 µg/mL)	13 ± 0.95	22 ± 0.14	20 ± 0.19	297 to 299	18.19 ± 0.01	16.91 ± 0.01	22 ± 0.11	28 ± 0.45	19 ± 0.45	16 ± 0.28	118 (≈ 49.1 µg/mL)	132 (≈ 55.1 µg/mL)	–
COc1cccc2c1C(=O)c1c(O)c3c(c(O)c1C2=O)C[C@@](O)(C(=O)CO)C[C@@H]3O[C@H]1C[C@H](N)[C@H](O)[C@H](C)O1 [Doxorubicin, doxorubicin, reference compound]	–	–	–	–	–	–	–	–	–	–	–	4.62 ± 0.01	5.66 ± 0.01	–	–	–	–	–	–	–
Cc1c(Nc2nc3c(s2)sc(=S)n3C)c(=O)n(-c2ccccc2)n1C [Compound 5c, 1,5-Dimethyl-4-((4-methyl-5-thioxo-4,5-dihydrothiazolo[4,5-d]thiazol-2-yl)amino)-2-phenyl-1H-pyrazol-3(2H)-one]	17 ± 0.78	125 (≈ 48.8 µg/mL)	68.8 (≈ 26.8 µg/mL)	18.9 (≈ 7.35 µg/mL)	178 (≈ 69.4 µg/mL)	20.8 (≈ 8.08 µg/mL)	62.2 (≈ 24.2 µg/mL)	20 ± 0.08	25 ± 0.1	22 ± 0.48	189 to 191	14.69 ± 0.03	11.85 ± 0.03	24 ± 0.89	15 ± 0.86	26 ± 0.17	19 ± 0.23	17.8 (≈ 6.95 µg/mL)	79.4 (≈ 30.9 µg/mL)	–
Cc1c(Nc2nc3c(s2)sc(=S)n3-c2ccccc2)c(=O)n(-c2ccccc2)n1C [Compound 5a, 1,5-Dimethyl-2-phenyl-4-((4-phenyl-5-thioxo-4,5-dihydrothiazolo[4,5-d]thiazol-2-yl)amino)-1H-pyrazol-3(2H)-one]	23 ± 0.05	44.7 (≈ 20.2 µg/mL)	63.6 (≈ 28.7 µg/mL)	183 (≈ 82.8 µg/mL)	–	–	–	21.2 ± 0.25	–	–	201 to 203	73.8 ± 0.04	65.19 ± 0.02	13 ± 0.43	–	9 ± 0.53	–	197 (≈ 89.2 µg/mL)	–	–
Cc1c(Nc2nc3c(C#N)c(N)sc3s2)c(=O)n(-c2ccccc2)n1C [Compound 3a, 5-Amino-2-((1,5-dimethyl-3-oxo-2-phenyl-2,3-dihydro-1H-pyrazol-4-yl)amino)thieno [3,2-d]thiazole-6-carbonitrile]	17 ± 0.95	125 (≈ 47.9 µg/mL)	16.9 (≈ 6.44 µg/mL)	185 (≈ 70.8 µg/mL)	58.9 (≈ 22.5 µg/mL)	19.4 (≈ 7.4 µg/mL)	40.5 (≈ 15.5 µg/mL)	28 ± 0.15	25 ± 0.15	22 ± 0.44	> 300	27.58 ± 0.01	25.72 ± 0.03	13 ± 0.76	21 ± 0.69	18 ± 0.25	12 ± 0.51	120 (≈ 45.9 µg/mL)	186 (≈ 71.2 µg/mL)	fold more potency than streptomycin, S. pneumoniae (S. pneumoniae 010010 [10]; from MIC): 1.1 folds; fold more potency than streptomycin, P. aeruginosa (P. aeruginosa [12]; from MIC): 1.6 folds; MIC A. fumigatus RCMB 02568 (A. fumigatus RCMB 02568 [15]; two-fold serial dilution): completely lost; MIC C. albicans ATCC 10231 (C. albicans ATCC 10231 [16]; two-fold serial dilution): completely lost
CCn1c(=S)sc2sc(Nc3c(C)n(C)n(-c4ccccc4)c3=O)nc21 [Compound 5b, 4-((4-Ethyl-5-thioxo-4,5-dihydrothiazolo[4,5-d]thiazol-2-yl)amino)-1,5-dimethyl-2-phenyl-1H-pyrazol-3(2H)-one]	–	–	135 (≈ 54.6 µg/mL)	15.2 (≈ 6.13 µg/mL)	15.9 (≈ 6.4 µg/mL)	193 (≈ 78 µg/mL)	122 (≈ 49.1 µg/mL)	16 ± 0.88	10 ± 0.42	18 ± 0.95	183 to 185	43.94 ± 0.02	48.04 ± 0.03	27 ± 0.41	28 ± 0.12	–	12 ± 0.07	–	185 (≈ 74.7 µg/mL)	–
C[C@@H]1[C@H](O)[C@@H](C)/C=C/C=C/C=C/C=C/C=C/C=C/C=C/[C@H](O[C@@H]2O[C@H](C)[C@@H](O)[C@H](N)[C@@H]2O)C[C@@H]2O[C@](O)(C[C@@H](O)C[C@@H](O)[C@H](O)CC[C@@H](O)C[C@@H](O)CC(=O)O[C@H]1C)C[C@H](O)[C@H]2C(=O)O [Amphotericin B, reference compound]	–	–	–	–	–	–	–	–	–	–	–	–	–	–	–	–	–	39.1 (≈ 36.2 µg/mL)	67.8 (≈ 62.7 µg/mL)	zone of inhibition at 500 µg/mL (A. fumigatus RCMB 02568 [13]; RCMB02568, well diffusion agar, 0.5 mg/mL, read-out: Mean diameter of inhibition zone (mean ± SEM) A. fumigatus RCMB 02568): 22 ± 0.72 mm; zone of inhibition at 500 µg/mL (C. albicans ATCC 10231 [14]; ATCC10231, well diffusion agar, 0.5 mg/mL, read-out: Mean diameter of inhibition zone (mean ± SEM) C. albicans ATCC 10231): 20 ± 0.78 mm
